| SMILES | melting point |
| --- | --- |
| COc1ccc2c(c1)C13CCN(C)C(C2)C1(OC(C)=O)CCOC3 (stereo unspecified) | 161 to 163 °C |
| COC=C(C(=O)OC)c1ccccc1[C@@H]1O[C@H]1c1ccccc1 (relative stereo) | 110 to 113 °C |
| O=C(c1ccc(Oc2ccccc2)cc1)c1ccc(C(=O)c2ccc(Oc3ccccc3)cc2)cc1 | 212 to 214 °C |
| O=C(O)CCCCCO/N=C/c1cccnc1 | 117 °C |
| CC(NC(=O)c1cc2ccccc2[nH]1)C(=O)N(c1ccccc1)c1ccccc1 (racemic) | 242 °C |
| COC(=O)c1ccc(CBr)c(CBr)c1 | 74 to 75 °C |
| COc1cc(C=O)cc2c1OC1(C=C2Br)CCC1 | 128 to 129 °C |
| COC(=O)c1ccc2nn(-c3cc(C(C)(C)CC(C)(C)C)cc(C(C)(C)c4ccccc4)c3O)nc2c1 | 141 to 143 °C |
| CCOCc1nc2c(N)nc(C)cc2n1CCCCN | 108 to 111 °C |
| CC(C)N1CCN(c2ccc(OCC(O)CC(O)(Cn3cncn3)c3ccc(Cl)cc3Cl)cc2)CC1 (stereo unspecified) | 131 to 132 °C |
| CC1COC(C2CCC(O)C2)N1C(=O)c1ccccc1 (stereo unspecified) | 83 to 85 °C |
| COc1cc(Cl)ccc1CC(=O)O | 100 °C |
| CCC(C=O)c1ccc(S(C)(=O)=O)cc1 (stereo unspecified) | 202 to 204 °C |
| O=C1CC2(CCCC2)c2ccc(O)cc21 | 145 °C |
| CCc1[nH]n(C2CCCC2)c2nc(Cc3cccn3C)nc(=O)c1-2 | 214 to 216 °C |
| CNC(=O)CCCCCCCN(Cc1ccccc1)S(=O)(=O)c1ccc(Cl)c(COc2cccc3ccc(C)nc23)c1Cl | 120 °C |
| CCCC(=O)c1cc2c(=O)c(C(=O)OCC)cn(CC)c2cc1C | 145 to 146 °C |
| OC(c1cccc(Br)n1)(C(F)(F)F)C(F)(F)F | 67 to 69 °C |
| CC1(OC(=O)c2ccco2)C=CC(COC(=O)c2ccco2)=CN1 (stereo unspecified) | 118 to 119 °C |
| COc1ccc(OCC(O)CN2CCC(N3CCNC3=O)CC2)cc1 (stereo unspecified) | 148 to 150 °C |
| CN1C(=O)C(C)(C)C(=O)Nc2cc(C#N)ccc21 | 289 to 294 °C |
| Cc1c(C(=O)Nc2ccc(N3CCN(C4CCOCC4)CC3)c(C#N)c2)cnn1-c1cccc(Cl)c1 | 230 °C |
| O=C1c2ccc(OCCO)cc2C(=O)c2cc3ccccc3cc21 | 209 °C |
| Cc1cccc(-c2nc3ccccn3c2-c2ccnc(-c3ccc(N4CCOCC4)cc3)c2)n1 | 190 °C |
| CSc1nc(NCC=C(C)C)c2ccnc-2[nH]1 | 155 to 156 °C |
| FC(F)(F)c1ccc(CN2CC3(COc4cc5c(cc43)CCO5)c3c(-c4cncnc4)cccc32)o1 (stereo unspecified) | 263 to 266 °C |

| SMILES | melting point |
| --- | --- |
| COc1ccc2c(c1)CC(C(=O)NCCOc1ccc(C(=O)O)cc1)N2S(=O)(=O)c1ccc(-c2ccc(F)cc2F)cc1 (stereo unspecified) | 91 °C |
| CC(=O)c1c(C)c(C#N)c2nc(C3CC3)oc2c1N1CC[C@H](N(C)C)C1 | 142 °C |
| Cc1cccc(C2C(C#N)=C(C3CC3)Nc3n[nH]cc32)c1[N+](=O)[O-] (stereo unspecified) | 265 °C |
| O=C(O)c1cc(Br)cnc1Cl | 174 to 177 °C |
| Cc1cc(-c2ccco2)ccc1C(=O)CC(=O)C(F)(F)F | 135 to 137 °C |
| Cc1c(N2C[C@H]3CCOC[C@@]3(N)C2)c(F)cc2c(=O)c(C(=O)O)cn([C@@H]3C[C@@H]3F)c12 | 158 to 160 °C |
| Nc1cc(N2CCCCC2)c(F)cc1[N+](=O)[O-] | 112 to 113 °C |
| O=C(CN1C(=O)c2ccccc2C1=O)Nc1ccccc1Cc1ccccc1 | 232 °C |
| O=c1[nH]c2ccc(C3CCC(NCCS(=O)c4ccccc4)CC3)cc2o1 (stereo unspecified) | 107 to 110 °C |
| O=C(Nc1cccc2c(=O)cc(C(=O)O)oc12)c1ccc2c(c1)CCC(CCCc1ccccc1)O2 (stereo unspecified) | 325 to 326 °C |
| COc1ccc(Oc2c(C)cc([N+](=O)[O-])cc2C)cc1 | 117 to 120 °C |
| O=C(Oc1ccccc1)N1CCC(c2nn(C(=O)c3ccccc3)c3cc(F)ccc23)CC1 | 137 to 139 °C |
| COc1ccc(Nc2nc(C)ccc2S(=O)(=O)c2ccc(OCc3ccccc3OC)cc2)c(C)c1 | 70 to 72 °C |
| CC(C)(C)CNCc1nc(-c2ccc3c(c2)Nc2ccccc2S3)cs1 | 172 to 174 °C |
| CCSC1(SCC)C(=O)CC2C3CCC4=CC(=O)C=CC4(C)C3(F)C(O)CC21C (stereo unspecified) | 268 to 270 °C |
| CCCNC(=O)C1(CCCCc2ccc([N+](=O)[O-])cc2)c2ccccc2-c2ccccc21 | 109 to 110 °C |
| FC(F)(F)c1ccc(C2CNCc3[nH]c4ccccc4c32)cc1 (stereo unspecified) | 172 to 174 °C |
| c1ccc(OC(Oc2ccccc2)Oc2c3ccccc3cc3ccccc23)cc1 | 90 to 92 °C |
| CC(C(=O)NCC(COC(=O)C(C)(C)C)Cc1ccc(C(C)(C)C)cc1)c1ccc(NS(C)(=O)=O)cc1 (stereo unspecified) | 97 to 100 °C |
| N=C(N)Nc1nc(CSCCC(=O)NS(N)(=O)=O)cs1 | 160 °C |
| O=C1NC(=Cc2cccc(Cl)c2Cl)C(=O)C1=NO | 180 °C |
| COc1cc(Nc2c(C#N)cnc3cc(-c4ccc(CN5CCN(CCO)CC5)o4)ccc23)c(Cl)cc1Cl | 176 to 181 °C |
| CN(C)c1ccc2nc(N)c(C#N)c(NCc3ccco3)c2c1 | 235 °C |
| CCCc1nc2c(N)nc3ccccc3c2n1CCCCN(OC)C(=O)Nc1ccccc1 | 164 to 166 °C |
| Cc1ccc(C(=O)c2c(C)cc(CC(=O)O)n2C)cc1 | 160 to 161 °C |
| O=C(c1ccc([N+](=O)[O-])cc1)c1ccc2c(n1)C(O)CCCN2 (stereo unspecified) | 182 to 185 °C |

| SMILES | melting point |
| --- | --- |
| O=C(CSCc1ccc(Cl)cc1Cl)NO | 116 °C |
| O=C(CCCCCl)c1cc2c3c(c1)CCN3C(=O)CC2 | 110 to 111 °C |
| NC1(CO)CCCNC1=O (stereo unspecified) | 145 °C |
| CS(=O)(=O)c1ccc(-c2cccn2-c2ccc(F)c(Cl)c2)cc1 | 146 to 149 °C |
| CC(=O)Oc1ccc(OC(C)=O)c(-c2ccc(C)cc2)c1 | 94 to 96 °C |
| Cn1ccc2cc(-c3csc4ncnc(NCc5ccccn5)c34)ccc21 | 184 to 185 °C |
| CCc1cc2ccccn2c1C(=O)c1cc(Cl)c(O)c(Cl)c1 | 206 °C |
| CC(C)=CCNC(=O)Cn1ccnc1[N+](=O)[O-] | 174 to 176 °C |
| COc1cc2c(Nc3cc(OC)c(OC)c(OC)c3)c(C#N)cnc2cc1/C=C/CCN1CCN(C)CC1 | 122 to 124 °C |
| CC(C)Oc1ccc(CCCCC2OC(=O)NC2=O)cc1 (stereo unspecified) | 81 to 82 °C |
| NS(=O)(=O)c1cccc(-c2cn(-c3nc(-c4ccc(Cl)c(Cl)c4)cc(C(F)(F)F)n3)cn2)c1 | 239 °C |
| CCN1c2ncc(CCc3ccncc3)cc2C(=O)N(C)c2ccc(C#N)nc21 | 149 to 150 °C |
| COc1cc2ccc(C(=O)CCCCBr)cc2cc1OC | 93 to 95 °C |
| CC1(C)N=C(c2ccccc2F)c2cc([N+](=O)[O-])cc(Br)c2NC1=O | 164 °C |
| CCOC(=O)c1cnn(-c2c(Cl)cc(C(F)(F)F)cc2Cl)c1Br | 80 to 82 °C |
| COc1cccc(C2C(=O)CCc3ccccc32)c1 (stereo unspecified) | 161 to 162 °C |
| C[C@@H](Cn1ncc2ccc(O)c(Br)c21)NC(=O)OCc1ccccc1 | 40 °C |
| CCn1c(=O)c2[nH]c(C(C)=Cc3ccccc3)nc2n(CC)c1=O | 251 to 252 °C |
| O=S(=O)(NC1CC1)c1ccc(Nc2nc(OCC3CCCCC3)c3nc[nH]c3n2)cc1 | 220 to 221 °C |
| O=C(O)c1ccc(OCCCOCCCCCCBr)cc1 | 72 to 75 °C |
| FC(F)(F)c1ccc(C=Cc2nc[nH]n2)cc1 | 141 to 143 °C |
| CCCc1ccc(S(=O)(=O)Nc2ccc3oncc3c2)cc1 | 130 to 131 °C |
| CCNc1nc(N)nc(N)n1 | 171 °C |
| CCOP(=O)(Cc1cc(Cl)c(O)c(C(C)(C)C)c1)OCC | 116 °C |
| CCOC(=O)c1c(C(F)(F)F)nc(C(F)F)c(C(=O)OC)c1C1CC1 | 49 to 52 °C |
| c1ccc(-c2cccc3[nH]c4c(c23)CCNCC4)cc1 | > 250 °C |

| SMILES | melting point |
| --- | --- |
| COc1ccc(C2CCOCC2)cc1NC(=S)c1ncc[nH]1 | 189 to 190 °C |
| CCOc1ccc2c(=O)cc(-c3ccccc3)oc2c1 | 138 to 139 °C |
| COc1cc(F)ccc1-c1cncc(OC2SCC(O)C(O)C2O)c1 (stereo unspecified) | 218 to 228 °C |
| CCC(OCC(F)F)c1ccc(Cl)c2nc3n(c12)CCCN3c1ccc(OC)nc1C (stereo unspecified) | 130 to 132 °C |
| CN(C)C(=O)c1ccc(Nc2nc(OCC3CCCCC3)c3nc[nH]c3n2)cc1 | 184 to 186 °C |
| COc1ccc(C2=NNC(=O)CC2)cc1Cl | 194 to 195 °C |
| O=Cc1ccc2c(c1)C1(c3ccccc3-2)c2ccccc2-c2ccc(CO)cc21 (stereo unspecified) | 262 to 263 °C |
| C[C@H](OC(=O)NCC(F)(F)C(F)(F)F)C(=O)N[C@@H]1C(=O)N(C)c2cc(F)ccc2O[C@@H]1C | 148 to 150 °C |
| COc1cc(C2CCN(CC(N)=O)CC2)ccc1Nc1ncc2ccc(-c3ccccc3OC)n2n1 | 88 to 95 °C |
| Cc1cc(C)cc(C(=O)N(C)[C@H](Cc2ccccc2)C(=O)N[C@@H](Cc2c[nH]c3ccccc23)C(=O)O)c1 | 91 to 94 °C |
| CCc1ccc2c(c1)cc(C(=O)O)n2CC(=O)OC | 181 °C |
| CC(Cc1c[nH]c2ccccc12)NC1CCC(c2ccccc2)(N(C)C)CC1 (stereo unspecified) | 155 to 162 °C |
| Cc1cc(COc2ccc(C(=O)NC[C@@H](C(=O)NO)N3CCN(S(=O)(=O)C(C)C)CC3)cc2)c2ccccc2n1 | 188 °C |
| Nc1cc([N+](=O)[O-])ccc1CO | 126 to 128 °C |
| CCOC(=O)N1Cc2cc(NN=C(C)C)nnc2C(C)C1 (stereo unspecified) | 140 to 142 °C |
| CCCCC(=O)c1oc(=O)[nH]c1C | 92 to 94 °C |
| CC1(C)C(=O)Oc2ccc3cc(N)c(Cn4cncn4)cc3c21 | 160 to 163 °C |
| Clc1ccc(CSc2nnc(-c3ccc4occc4c3)o2)cc1 | 162 to 163 °C |
| CC(C)(C)c1cc(/C=C/c2n[nH]c(=S)s2)cc(C(C)(C)C)c1O | 248 to 249 °C |
| Nc1nc(N2CCC2)c2ncn(C3C=CC(CO)C3)c2n1 (stereo unspecified) | 187 to 189 °C |
| Cc1cnc(N(C)C)nc1-c1ccncc1 | 114 to 116 °C |
| O=C(O)c1ccc(F)cc1NC(=O)c1ccccc1C(=O)O | 187 to 188 °C |
| COc1ccc2c(c1OC)CC(c1ccccc1)CC2C#N (stereo unspecified) | 118 to 121 °C |
